From US5830897A, “α- and β-amino acid hydroxyethylamino sulfonamides useful as retroviral protease inhibitors” (G. D. Searle & Co., priority 1995, dated 1998)
Where two headings read alike, the source gives them in different places. Each block holds one compound with its values, some of them ahead of it.

Tests used:
[1] = target: T1, HIV protease (Human immunodeficiency virus type 1 group M subtype B, UniProt P04585); assay: biochemical
T1 construct: HIV protease is diluted in the assay buffer to a final enzyme concentration of 12.3 nanomolar, based on a molecular weight of 10,780
Protocol: The enzyme method is described below. […] The positive control is MVT-101 (Miller, M. et al, Science, 246, 1149 (1989)] The assay conditions are as follows:
Assay buffer: 20 mM sodium phosphate, pH 6.4
The above described substrate is dissolved in DMSO, then diluted 10 fold in assay buffer. Final substrate concentration in the assay is 80 μM.
The final concentration of DMSO is 14% and the final concentration of glycerol is 18%. The test compound is dissolved in DMSO and diluted in DMSO to 10× the test concentration; 10 μl of the enzyme preparation is added, the materials mixed and then the mixture is incubated at ambient temperature for 15 minutes. The enzyme reaction is initiated by the addition of 40 μl of substrate. The increase in fluorescence is monitored at 4 time points (0, 8, 16 and 24 minutes) at ambient temperature. Each assay is carried out in duplicate wells.

[2] = Intrinsic toxicity of test compound in CEM cells without virus (MTT); type: cell-based; details: human, Table 16, read-out: TD50 (the source's name)
From the text: Methods, 20, 309-321 (1988).

[3] = Table 15A, second part (Ex., Table, Entry)
[4] = Table 15A, @ 1 uM, read-out: % inhib
[5] = Table 15A, @ 10 uM, read-out: % inhib
[6] = Table 5B, @ 1 μM, read-out: % inhibition

Structure (SMILES): CC(C)CCN(C[C@@H](O)[C@H](Cc1ccccc1)NC(=O)OCc1ccccc1)S(=O)(=O)c1ccccc1 [Table 1A Entry 39]
IC50 [1, 3]: 16 nM

inhibition at 1 µM [1, 4]: 24% | inhibition at 10 µM [1, 5]: 74%
Structure (SMILES): CC(C)CCN(C[C@@H](O)[C@H](Cc1ccccc1)NC(=O)OCc1ccccc1)S(C)(=O)=O [Table 1A Entry 41]

inhibition at 1 µM [1, 4]: 42% | inhibition at 10 µM [1, 5]: 89%
Structure (SMILES): CC(C)CCN(C[C@@H](O)[C@H](Cc1ccccc1)NC(=O)OCc1ccccc1)S(=O)(=O)C(F)(F)F [Table 1A Entry 50]

inhibition at 1 µM [1, 4]: 31% | inhibition at 10 µM [1, 5]: 76%
Structure (SMILES): CC(C)CN(C[C@@H](O)[C@H](Cc1ccccc1)NC(=O)OCc1ccccc1)S(C)(=O)=O [Table 1A Entry 51]

inhibition at 1 µM [1, 4]: 39% | inhibition at 10 µM [1, 5]: 81%
Structure (SMILES): CC(C)CCN(C[C@@H](O)[C@H](Cc1ccccc1)NC(=O)OCc1ccccc1)S(=O)(=O)CCl [Table 1A Entry 52]

IC50 [1, 3]: 11 nM
Structure (SMILES): CC(C)CCN(C[C@@H](O)[C@H](Cc1ccccc1)NC(=O)OCc1ccccc1)S(=O)(=O)c1ccc(F)cc1 [Table 1a Entry 1]

Structure (SMILES): CC(C)CCN(C[C@@H](O)[C@H](Cc1ccccc1)NC(=O)OCc1ccccc1)S(=O)(=O)c1ccccc1[N+](=O)[O-] [Table 1a Entry 3]
inhibition at 1 µM [1, 4]: 38% | inhibition at 10 µM [1, 5]: 79%

IC50 [1, 3]: 16 nM
Structure (SMILES): CC(C)CCN(C[C@@H](O)[C@H](Cc1ccccc1)NC(=O)OCc1ccccc1)S(=O)(=O)c1ccc2ccccc2c1 [Table 1a Entry 4]

inhibition at 10 µM [1, 5]: 36%
Structure (SMILES): CC(C)CCN(C[C@@H](O)[C@H](Cc1ccccc1)NC(=O)OCc1ccccc1)S(=O)(=O)Cc1ccccc1 [Table 1a Entry 6]

IC50 [1, 3]: 9.6 nM
Structure (SMILES): CC(C)CN(C[C@@H](O)[C@H](Cc1ccccc1)NC(=O)OCc1ccccc1)S(=O)(=O)c1ccc(F)cc1 [Table 1a Entry 7]

inhibition at 0.1 µM ([1]; Table 15A, @ 0.1 uM): 38% | inhibition at 1 µM [1, 4]: 90%
Structure (SMILES): CC(C)CCN(C[C@@H](O)[C@H](Cc1ccccc1)NC(=O)C(NC(=O)CN(C)C)C(C)(C)C)S(C)(=O)=O (some centres unmarked) [Table 3 Entry 2]

IC50 ([1]; Table 5B): 26 nM
Structure (SMILES): COc1ccc(S(=O)(=O)N(CC(C)C)CC(O)C(Cc2ccccc2)NC(=O)c2ccc3[nH]ccc3c2)cc1 (centres unmarked) [Table 5A Entry 5]

inhibition at 10 µM ([1]; Table 5B, @ 10 μM, read-out: % inhibition): 59%
Structure (SMILES): COc1ccc(S(=O)(=O)N(CC(C)C)CC(O)C(Cc2ccccc2)NC(=O)c2ccccc2S(C)(=O)=O)cc1 (centres unmarked) [Table 5A Entry 17]

inhibition at 1 µM [1, 6]: 85%
Structure (SMILES): COc1ccc(S(=O)(=O)N(CC(C)C)CC(O)C(Cc2ccccc2)NC(=O)c2ccccc2CS(C)(=O)=O)cc1 (centres unmarked) [Table 5A Entry 20]

inhibition at 1 µM [1, 6]: 63%
Structure (SMILES): COc1ccc(S(=O)(=O)N(CC(C)C)CC(O)C(Cc2ccccc2)NC(=O)c2ccc(CS(C)(=O)=O)cc2)cc1 (centres unmarked) [Table 5A Entry 22]

IC50 ([1]; Table 5B): 190 nM
Structure (SMILES): COc1ccc(S(=O)(=O)N(CC(C)C)CC(O)C(Cc2ccccc2)NC(=O)c2ccccc2OC)cc1 (centres unmarked) [Table 5A Entry 29]

IC50 [1, 3]: 130 nM
Structure (SMILES): CC(C)CCN(C[C@@H](O)[C@H](Cc1ccccc1)NC(=O)C(N)C(C)(C)C)S(=O)(=O)c1ccccc1 (some centres unmarked) [Table 11 Entry 1]

IC50 [1, 3]: 3.3 nM
Structure (SMILES): CC(C)CCN(C[C@@H](O)[C@H](Cc1ccccc1)NC(=O)[C@@H](NC(=O)CBr)C(C)(C)C)S(=O)(=O)c1ccccc1 [Table 12 Entry 10]

Structure (SMILES): CC(C)CCN(C[C@@H](O)[C@H](Cc1ccccc1)NC(=O)[C@H](CC(N)=O)NC(=O)c1ccc2ccccc2n1)S(C)(=O)=O [Table 15A Entry 4]
IC50 ([1]; Table 15A, first part): 27 nM

Structure (SMILES): CC(C)CCN(C[C@@H](O)[C@H](Cc1ccccc1)NC(=O)[C@H](CC(N)=O)NC(=O)c1ccc2ccccc2n1)S(C)(=O)=O [Table 16 Entry 4]
IC50 ([1]; Table 16, enzyme assay): 27 nM

Structure (SMILES): CC(C)CCN(C[C@@H](O)[C@H](Cc1ccccc1)NC(=O)[C@@H](NC(=O)CN(C)C)C(C)(C)C)S(C)(=O)=O [Table 16 Entry 6]
CC50 [2]: 425 nM

Structure (SMILES): CNC(=O)C[C@H](NC(=O)c1ccc2ccccc2n1)C(=O)N[C@@H](Cc1ccccc1)[C@H](O)CN(CCC(C)C)S(=O)(=O)c1ccccc1 [Table 16 Entry 7]
CC50 [2]: 39 nM

Structure (SMILES): CC(C)CCN(C[C@@H](O)[C@H](Cc1ccccc1)NC(=O)c1ccccc1)S(=O)(=O)c1ccccc1 [Table 16 Entry 8]
CC50 [2]: 24 nM

Structure (SMILES): CCC(C)[C@H](NC(=O)CN(C)C)C(=O)N[C@@H](Cc1ccccc1)[C@H](O)CN(CCC(C)C)S(=O)(=O)c1ccccc1 (some centres unmarked) [Table 16 Entry 14]
CC50 [2]: 55000 nM

Structure (SMILES): COc1ccc(S(=O)(=O)N(CC(C)C)C[C@@H](O)[C@H](Cc2ccccc2)NC(=O)c2ccccc2)cc1 [Table 16 Entry 28]
IC50 ([1]; Table 16, enzyme assay): 14 nM

Structure (SMILES): COc1ccc(S(=O)(=O)N(CC(C)C)C[C@@H](O)[C@H](Cc2ccccc2)NC(=O)c2ccccc2Cl)cc1 [Table 16 Entry 30]
IC50 ([1]; Table 16, enzyme assay): 6 nM

Structure (SMILES): CCc1ccccc1C(=O)N[C@@H](Cc1ccccc1)[C@H](O)CN(CC(C)C)S(=O)(=O)c1ccc(OC)cc1 [Table 16 Entry 31]
IC50 ([1]; Table 16, enzyme assay): 10 nM

Structure (SMILES): CC(C)CCN(C[C@@H](O)[C@H](Cc1ccccc1)NC(=O)OCc1ccccc1)S(=O)(=O)c1ccccc1 [drawing 314]
IC50 ([1]; Table 15A, first part): 16 nM

Structure (SMILES): CC(C)CCN(C[C@@H](O)[C@H](Cc1ccccc1)NC(=O)OCc1ccccc1)S(=O)(=O)c1ccccc1 [drawing 326]
IC50 ([1]; Table 16, enzyme assay): 16 nM
